{"source": "paper PMC6095594", "about": "“Pre-clinical evaluation of quinoxaline-derived chalcones in tuberculosis” (PLoS ONE, 2018)", "key": {"[1]": {"tested_on": "M. tuberculosis H37Rv strain", "assay": "microbe, parasite or virus in culture", "format": "cell-based"}, "[2]": {"target": "CYP2E1 (Homo sapiens, UniProt P05181)", "sequence (P05181 whole entry)": "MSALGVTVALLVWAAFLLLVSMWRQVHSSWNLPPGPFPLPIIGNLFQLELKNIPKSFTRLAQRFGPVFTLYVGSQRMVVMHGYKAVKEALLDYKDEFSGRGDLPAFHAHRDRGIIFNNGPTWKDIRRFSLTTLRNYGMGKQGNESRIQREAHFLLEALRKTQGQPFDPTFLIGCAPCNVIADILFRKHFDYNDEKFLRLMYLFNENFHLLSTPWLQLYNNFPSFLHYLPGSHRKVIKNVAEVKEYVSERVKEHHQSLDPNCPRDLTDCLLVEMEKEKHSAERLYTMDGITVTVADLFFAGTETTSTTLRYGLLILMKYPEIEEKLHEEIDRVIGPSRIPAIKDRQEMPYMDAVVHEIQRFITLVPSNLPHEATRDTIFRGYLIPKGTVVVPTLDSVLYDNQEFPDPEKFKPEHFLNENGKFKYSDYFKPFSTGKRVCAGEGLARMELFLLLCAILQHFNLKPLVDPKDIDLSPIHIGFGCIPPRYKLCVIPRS", "conditions": "human liver microsomes, CYP2E1, N9 0.01–100 μmol L^-1"}, "[3]": {"tested_on": "M. tuberculosis pNIP::KatG(WT)", "assay": "microbe, parasite or virus in culture", "format": "cell-based", "conditions": "Mycobacterium tuberculosis"}, "[4]": {"tested_on": "M. tuberculosis pan-susceptible clinical isolate CDCT-28", "assay": "microbe, parasite or virus in culture", "format": "cell-based", "conditions": "Mycobacterium tuberculosis"}, "[5]": {"tested_on": "M. tuberculosis pNIP::control", "assay": "microbe, parasite or virus in culture", "format": "cell-based", "conditions": "Mycobacterium tuberculosis; pNIP::control (empty vector)"}, "[6]": {"target": "CYP2C9 (Homo sapiens, UniProt P11712)", "sequence (P11712 whole entry)": "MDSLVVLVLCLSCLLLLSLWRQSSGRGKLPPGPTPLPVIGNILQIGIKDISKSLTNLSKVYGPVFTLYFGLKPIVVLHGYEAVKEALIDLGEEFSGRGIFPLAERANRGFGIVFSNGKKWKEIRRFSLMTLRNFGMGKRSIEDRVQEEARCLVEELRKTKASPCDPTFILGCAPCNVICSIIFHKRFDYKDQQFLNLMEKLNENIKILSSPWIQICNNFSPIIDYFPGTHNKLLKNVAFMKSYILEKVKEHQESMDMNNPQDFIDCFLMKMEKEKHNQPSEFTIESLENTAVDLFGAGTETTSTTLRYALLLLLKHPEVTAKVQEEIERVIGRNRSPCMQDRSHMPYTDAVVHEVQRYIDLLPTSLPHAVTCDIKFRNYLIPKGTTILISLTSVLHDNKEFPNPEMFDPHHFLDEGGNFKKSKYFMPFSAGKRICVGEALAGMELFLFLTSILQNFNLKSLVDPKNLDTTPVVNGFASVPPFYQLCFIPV", "conditions": "human liver microsomes"}, "[7]": {"tested_on": "mycolic acids synthesis in M. tuberculosis cells", "format": "cell-based", "conditions": "N9 at 10 and 25 μg/mL, 18 hours"}, "[8]": {"target": "CYP1A2 (Homo sapiens, UniProt P05177)", "sequence (P05177 whole entry)": "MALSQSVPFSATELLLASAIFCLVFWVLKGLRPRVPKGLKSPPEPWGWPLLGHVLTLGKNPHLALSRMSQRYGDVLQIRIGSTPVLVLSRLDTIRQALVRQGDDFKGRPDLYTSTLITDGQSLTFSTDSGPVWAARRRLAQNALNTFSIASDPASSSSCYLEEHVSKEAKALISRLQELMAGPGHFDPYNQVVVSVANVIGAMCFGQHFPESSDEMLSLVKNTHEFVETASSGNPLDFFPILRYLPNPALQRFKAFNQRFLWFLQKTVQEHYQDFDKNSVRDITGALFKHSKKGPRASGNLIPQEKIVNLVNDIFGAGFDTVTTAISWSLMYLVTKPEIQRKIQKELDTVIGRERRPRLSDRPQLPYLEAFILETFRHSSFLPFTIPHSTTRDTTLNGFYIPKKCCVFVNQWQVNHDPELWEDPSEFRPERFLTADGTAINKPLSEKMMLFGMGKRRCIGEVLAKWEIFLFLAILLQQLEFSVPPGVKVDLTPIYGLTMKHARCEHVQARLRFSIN", "assay": "biochemical"}}, "note": "Like-named read-outs stand apart in the source and are kept apart here.", "data": [{"smiles": "COc1ccc(OC)c(C(=O)/C=C/c2ccc3nccnc3c2)c1", "note": "[N9]", "values": [{"measurement": "MIC", "setting": "[1]; H37Rv", "value": 3.13, "unit": "µg/mL"}, {"measurement": "MIC", "setting": "[1]; Mycobacterium tuberculosis, H37RV, read-out: MIC", "value": "3.13 to 12.5", "unit": "µg/mL"}, {"measurement": "MIC", "setting": "[1]; Mycobacterium tuberculosis, read-out: MICs, M. tuberculosis H37Rv strain, and clinical isolates (summary)", "value": "1.56 to 3.13", "unit": "µg/mL"}, {"measurement": "percentage of remaining enzyme activity", "setting": "[2]", "value": "approximately 100%"}, {"measurement": "MIC", "setting": "[3]", "value": 3.13, "unit": "µg/mL"}, {"measurement": "MIC", "setting": "[4]", "value": 1.56, "unit": "µg/mL"}, {"measurement": "MIC", "setting": "[5]", "value": 3.13, "unit": "µg/mL"}, {"measurement": "Inhibitory potential", "setting": "[6]", "value": "weak inhibitory potential"}, {"measurement": "Effect on synthesis of mycolic acids and non-hydroxylated fatty acids", "setting": "[7]", "value": "did not inhibit"}, {"measurement": "IC50", "setting": "[8]", "value": 2, "unit": "µM"}]}]}
